# Laboratory results reported in patent publication US20170121683A1, “ARYL HYDROCARBON RECEPTOR DISRUPTION AND ENHANCEMENT” (priority 2015, published 2017).
# Tested on: H9 hESCs
# Experiment: Hemato-endothelial differentiation of H9 hESCs as spin-EBs, flow cytometry (Example 1)
# Type: cell-based, human
# Description: H9 human embryonic stem cells (H9 hESCs; University of Wisconsin, Madison, Wis.) were adapted to passage as single cells using TrypLE (Invitrogen, Carlsbad, Calif.) as previously described (Ng et al. Nat. Protoc. 3, 768-76 (2008)). H9 hESCs were maintained on irradiated mouse embryonic fibroblasts in ES cell growth medium including Dulbecco's modified Eagle's medium (DMEM)/Ham's F-12 medium (F12) (Invitrogen) supplemented with 15% Knockout Serum Replacer (Invitrogen), 1 mM L-glutamine (Invitrogen), 0.1 mM β-mercaptoethanol (Sigma Aldrich, St. Louis, Mo.), 1% minimum essential medium nonessential amino acids (Invitrogen), 4 ng/mL basic fibroblast growth factor (R&D Systems Inc., Minneapolis, Minn.), and 1% penicillin-streptomycin (Invitrogen) incubated at 37° C. in a humidified atmosphere containing 5% CO2. Single-cell adapted hESCs were subjected to hemato-endothelial differentiation as spin embryoid bodies (“spin-EBs”), also previously described (Ng et al. Nat. Protoc. 3, 768-76 (2008); Knorr et al. Stem Cells Dev. 22, 1861-9 (2013); Ferrell et al., Stem Cells 33(4), 1130-41 (2015)). In brief, TrypLE-adapted hESCs were harvested are resuspended in bovine serum albumin polyvinyl alcohol essential lipids (BPEL) media (Ferrell et al. Stem Cells 33(4):1130-41 (2015)) supplemented with 20 ng/mL bone morphogenic protein-4 (R&D Systems), 20 ng/mL vascular endothelial growth factor (R&D Systems), and 40 ng/mL stem cell factor (R&D Systems) (hemato-endothelial induction media or Stage I mesodermal induction media). Cells were plated in a low-attachment 96-well plate (Thermo Scientific, Waltham, Mass.) at 3,000 cells per well and centrifuged at 1500 rpm for 5 minutes to create three-dimensionalized embryoid body aggregates. Following 6 days of incubation, EBs were transferred with a multichannel micropipette to 0.1% gelatinized 24-well plates (8 EBs/well) with BEL media (BPEL media minus polyvinyl alcohol) supplemented with 40 ng/mL vascular endothelial growth factor, 40 ng/mL stem cell factor, 30 ng/mL Interleukin-3 (Peprotech, Rocky Hill, N.J.), 30 ng/mL Interleukin-6 (Peprotech), and 30 ng/mL thrombopoietin (Peprotech) ([…] or Stage II media) to induce hemato-endothelial-specific differentiation. Depending on the treatment group, Stage II media was also supplemented with DMSO, 1 μM StemReginin-1 (SR-1) (Cellagen Technology, San Diego, Calif.) in DMSO or 10 nM 2,3,7,8-tetrachlorodibenzo-p-dioxin (TCDD) (Sigma Aldrich) in DMSO. EBs were cultured until the indicated time points and one-half media changes with fresh Stage II media and drugs were performed every three days. For EB harvesting, the media containing the non-adherent differentiated hematopoietic cells was set aside while the adherent cells were treated with 0.05% trypsin (Invitrogen) containing 2% chicken serum (Sigma Aldrich) for 8-10 minutes in a 37° C. water bath. Both non-adherent and adherent fractions were combined for subsequent analyses.
# Harvested cells were incubated with PE-Cy7 CD34 (BD Biosciences, San Jose, Calif.) in conjunction with APC CD31, APC CD41a, APC CD43, or APC CD45 for 30 minutes at 4° C. in FACS buffer (DPBS containing 2% fetal bovine serum and 0.1% sodium azide). Dead cells were excluded using Sytox Blue dye (Invitrogen) prior to analysis. Cells were analyzed using an LSRII flow cytometer (BD Biosciences) and data were analyzed using FlowJo software (TreeStart, Ashland, Oreg.).
SMILES,"CD34+CD31+ hemato-endothelial cells (Day 9, 1 μM SR-1, n=3)","expansion of CD34+CD45+ hematopoietic progenitor cells relative to DMSO-treated controls (Day 12, 1 μM SR-1)","CD34+CD45+ hematopoietic progenitor cells (Day 12, 1 μM SR-1, n=3)","CD34+CD45+ progenitor cells (Day 15, 10 nM TCDD, n=3)","CD34−CD43+ differentiated hematopoietic cells (Day 15, 10 nM TCDD, n=3)","CD34−CD45+ differentiated hematopoietic cells (Day 15, 10 nM TCDD, n=3)"
"CC(C)n1cnc2c(NCCc3ccc(O)cc3)nc(-c3csc4ccccc34)nc21 [SR-1, StemReginin-1]",17.63%±1.25,approximately two-fold expansion,16.35%±4.05,–,–,–
"Clc1cc2c(cc1Cl)Oc1cc(Cl)c(Cl)cc1O2 [TCDD, 2,3,7,8-tetrachlorodibenzo-p-dioxin]",–,–,–,3.99%±0.80,84.5%±2.78,81.75%±1.75
